In ChEMBL document CHEMBL1143820, “Mutations in 16S rRNA and ribosomal protein S5 associated with high-level spectinomycin resistance in Pasteurella multocida” (2007) one finds MIC data, which are given here for one compound.

≈ marks a conversion by molar mass, not a printed value.

What all share (type): functional
The subject of assay [1] is Pasteurella multocida. The assay can be described thus: Antibacterial activity against Pasteurella multocida isolate 1 with operon A,B,C,D,E,F 16S rRNA C1192G transversion mutation by CLSI M31-A2 method.
The test system of assay [2] is Pasteurella multocida. As to the kind of experiment: Antibacterial activity against Pasteurella multocida isolate 8 with operon A,B,C,D,E 16S rRNA C1192G transversion mutation by CLSI M31-A2 method.
Assay [3] concerns Pasteurella multocida. The assay can be described thus: Antibacterial activity against Pasteurella multocida isolate 10 with operon B,C 16S rRNA C1192G transversion mutation and S5 protein 32-SF-33>32I mutation by CLSI M31-A2 method.
The test system of assay [4] is Pasteurella multocida. As to the kind of experiment: Antibacterial activity against Pasteurella multocida isolate 17 by CLSI M31-A2 method.
Assay [5] relates to Pasteurella multocida. The assay can be described thus: Antibacterial activity against Pasteurella multocida isolate 4 with operon A,B,C,D,E,F 16S rRNA C1192G transversion mutation by CLSI M31-A2 method.
Assay [6] deals with Pasteurella multocida. As to the kind of experiment: Antibacterial activity against Pasteurella multocida isolate 2 with operon A,B,C,D,E,F 16S rRNA C1192G transversion mutation by CLSI M31-A2 method.
Assay [7] concerns Pasteurella multocida. The assay can be described thus: Antibacterial activity against Pasteurella multocida isolate 11 with operon B,C 16S rRNA C1192G transversion mutation and S5 protein 32-SF-33>32I mutation by CLSI M31-A2 method.
In assay [8] the test system is Pasteurella multocida. The assay can be described thus: Antibacterial activity against Pasteurella multocida isolate 3 with operon A,B,C,D,E,F 16S rRNA C1192G transversion mutation by CLSI M31-A2 method.
Assay [9] relates to Pasteurella multocida. As to the kind of experiment: Antibacterial activity against Pasteurella multocida isolate 16 by CLSI M31-A2 method.
Assay [10] concerns Pasteurella multocida. The assay can be described thus: Antibacterial activity against Pasteurella multocida isolate 6 with operon A,B,C,D,E 16S rRNA C1192G transversion mutation by CLSI M31-A2 method.
Assay [11] relates to Pasteurella multocida. As to the kind of experiment: Antibacterial activity against Pasteurella multocida isolate 15 by CLSI M31-A2 method.
The subject of assay [12] is Pasteurella multocida. As to the kind of experiment: Antibacterial activity against Pasteurella multocida isolate 14 by CLSI M31-A2 method.
Assay [13] relates to Pasteurella multocida. As to the kind of experiment: Antibacterial activity against Pasteurella multocida isolate 5 with operon A,B,C,D,E,F 16S rRNA C1192G transversion mutation by CLSI M31-A2 method.
Assay [14] relates to Pasteurella multocida. The assay can be described thus: Antibacterial activity against Pasteurella multocida isolate 9 with operon B,C 16S rRNA C1192G transversion mutation and S5 protein 32-SF-33>32I mutation by CLSI M31-A2 method.
For assay [15], the system named is Pasteurella multocida. As to the kind of experiment: Antibacterial activity against Pasteurella multocida isolate 7 with operon A,B,C,D,E 16S rRNA C1192G transversion mutation by CLSI M31-A2 method.
In assay [16] the test system is Pasteurella multocida. As to the kind of experiment: Antibacterial activity against Pasteurella multocida isolate 13 with loss of 23K in S5 protein by CLSI M31-A2 method.
In assay [17] the test system is Pasteurella multocida. The assay can be described thus: Antibacterial activity against Pasteurella multocida isolate 12 with operon B,C 16S rRNA C1192G transversion mutation and S5 protein 32-SF-33>32I mutation by CLSI M31-A2 method.

The MIC is the lowest concentration that inhibits growth of the organism. A lower MIC goes with greater potency. For `CN[C@@H]1[C@H](O)[C@H](NC)[C@H]2O[C@@]3(O)C(=O)C[C@@H](C)O[C@H]3O[C@@H]2[C@H]1O` [SPECTINOMYCIN], the MIC is more than 8190 µg/mL in assay [1]; 4100 µg/mL (≈ 12.3 mM) in [2]; more than 8190 µg/mL in assay [3]; 16 µg/mL (≈ 0.0481 mM) in assay [4]; more than 8190 µg/mL in assay [5]; more than 8190 µg/mL in assay [6]. Besides, the MIC in assay [7] was more than 8190 µg/mL; in assay [8], more than 8190 µg/mL; in assay [9] it was 16 µg/mL (≈ 0.0481 mM); in [10] it was 4100 µg/mL (≈ 12.3 mM); in assay [11] it was 16 µg/mL (≈ 0.0481 mM); in assay [12] it was 16 µg/mL (≈ 0.0481 mM). In addition, the MIC in assay [13] is more than 8190 µg/mL; in assay [14] it was 4100 µg/mL (≈ 12.3 mM); in assay [15], 8190 µg/mL (≈ 24.6 mM); in assay [16], 4100 µg/mL (≈ 12.3 mM); in assay [17] it was more than 8190 µg/mL.
